The values below come from ChEMBL document CHEMBL5260796, “Thiazolidinediones and PPAR orchestra as antidiabetic agents: From past to present” (Eur J Med Chem, 2017).

One experiment deals with Rattus norvegicus. Briefly: Antidiabetic activity against STZ-induced diabetic Sprague-Dawley rat assessed as reduction in fasting blood glucose level at 0.1 mg/kg,po for 2 months. Type of experiment: functional. Set-up: scale not given: the % may be the effect or the level left. The following applies: 1460 h.
A further experiment concerns Mus musculus. As to the kind of experiment: Antidiabetic activity against diabetic KKAy mouse model assessed as decrease in plasma glucose level at 50 mg/kg,po by glucose analyzer. The format is functional. More on the design: scale not given: the % may be the effect or the level left.

Consider `Cc1oc(-c2ccccc2)nc1CCC(=O)c1ccc(CC2SC(=O)NC2=O)cc1` (configuration not stated) [DARGLITAZONE], for which the Activity in the experiment on Rattus norvegicus stood at 80%.

In the case of `Cc1c(C)c2c(c(C)c1O)CCC(C)(COc1ccc(CC3SC(=O)NC3=O)cc1)O2` (configuration not stated) [TROGLITAZONE], the Activity with Mus musculus is on record as 38.5%.
